Laboratory results: patent publication US20250312469A1 (CANGET BIOTEKPHARMA, priority 2024, published 2025)

Columns and labels:
SK-ES-1 OS tumors = assay: SK-ES-1 osteosarcoma xenograft; format: in vivo, SCID mice; conditions: weekly×4
Excerpt: The SK-ES-1 OS cells (2×10^6 per tumor site) mixed with 50% Matrigel were subcutaneously injected into 2-3 SCID mice in the flank area to establish xenograft tumors. The established OS tumors were implanted into experimental SCID mice for drug efficacy studies. […] The schedule and route were weekly×4 via oral (p.o.) administration (arrowed). Each tumor curve is the mean tumor size+SD from 2-4 SCID mice. […] Each body weight change curve is the mean body weight change+SD from 2-4 SCID mice.

CYP3A4 mRNA = conditions: human, hepatocytes
Excerpt: (2) CYP positive inducers (Table 58a) and Williams' Medium E (WME) were purchased from Sigma-Aldrich (St. Louis, MO, USA). Dulbecco's phosphate-buffered saline (DPBS, pH 7.4) was purchased from Invitrogen (Carlsbad, CA, USA). Hepatocyte culture medium (serum-free) for CYP induction was purchased from XenoTech (catalog #K2300, Lenexa, KS, USA). The CellTiter 96 AQueous ONE Solution Cell Proliferation Assay was obtained from Promega (Madison, WI, USA). All other chemicals and reagents were of analytical grade or higher. (3) Fresh human hepatocytes (Table 58b) seeded at ˜0.15 million cells/well in 48-well plates (˜0.75 million cells/mL) were purchased from Thermo Fisher Scientific (Grand Island, NY, USA) and BioreclamationIVT (Baltimore, MD, USA).
Vehicle controls were treated in parallel with hepatocyte culture medium. […] (2) After the CYP induction treatment, the cells were used for a cell viability assay. […] The absorbance of formazan, which is proportional to the number of viable cells, was measured spectrophotometrically using the CellTiter 96 AQueous ONE Solution Cell Proliferation Assay. […] The concentration of RNA was determined using a Qubit Fluorometer with a Qubit RNA HS assay kit (Invitrogen). cDNA was synthesized from up to 1 μg of the total RNA harvested from the cells using a QuantiTect RT kit (Qiagen). […]

P-gp = P-gp (Homo sapiens, UniProt P08183)
Sequence of P-gp (P08183 whole entry): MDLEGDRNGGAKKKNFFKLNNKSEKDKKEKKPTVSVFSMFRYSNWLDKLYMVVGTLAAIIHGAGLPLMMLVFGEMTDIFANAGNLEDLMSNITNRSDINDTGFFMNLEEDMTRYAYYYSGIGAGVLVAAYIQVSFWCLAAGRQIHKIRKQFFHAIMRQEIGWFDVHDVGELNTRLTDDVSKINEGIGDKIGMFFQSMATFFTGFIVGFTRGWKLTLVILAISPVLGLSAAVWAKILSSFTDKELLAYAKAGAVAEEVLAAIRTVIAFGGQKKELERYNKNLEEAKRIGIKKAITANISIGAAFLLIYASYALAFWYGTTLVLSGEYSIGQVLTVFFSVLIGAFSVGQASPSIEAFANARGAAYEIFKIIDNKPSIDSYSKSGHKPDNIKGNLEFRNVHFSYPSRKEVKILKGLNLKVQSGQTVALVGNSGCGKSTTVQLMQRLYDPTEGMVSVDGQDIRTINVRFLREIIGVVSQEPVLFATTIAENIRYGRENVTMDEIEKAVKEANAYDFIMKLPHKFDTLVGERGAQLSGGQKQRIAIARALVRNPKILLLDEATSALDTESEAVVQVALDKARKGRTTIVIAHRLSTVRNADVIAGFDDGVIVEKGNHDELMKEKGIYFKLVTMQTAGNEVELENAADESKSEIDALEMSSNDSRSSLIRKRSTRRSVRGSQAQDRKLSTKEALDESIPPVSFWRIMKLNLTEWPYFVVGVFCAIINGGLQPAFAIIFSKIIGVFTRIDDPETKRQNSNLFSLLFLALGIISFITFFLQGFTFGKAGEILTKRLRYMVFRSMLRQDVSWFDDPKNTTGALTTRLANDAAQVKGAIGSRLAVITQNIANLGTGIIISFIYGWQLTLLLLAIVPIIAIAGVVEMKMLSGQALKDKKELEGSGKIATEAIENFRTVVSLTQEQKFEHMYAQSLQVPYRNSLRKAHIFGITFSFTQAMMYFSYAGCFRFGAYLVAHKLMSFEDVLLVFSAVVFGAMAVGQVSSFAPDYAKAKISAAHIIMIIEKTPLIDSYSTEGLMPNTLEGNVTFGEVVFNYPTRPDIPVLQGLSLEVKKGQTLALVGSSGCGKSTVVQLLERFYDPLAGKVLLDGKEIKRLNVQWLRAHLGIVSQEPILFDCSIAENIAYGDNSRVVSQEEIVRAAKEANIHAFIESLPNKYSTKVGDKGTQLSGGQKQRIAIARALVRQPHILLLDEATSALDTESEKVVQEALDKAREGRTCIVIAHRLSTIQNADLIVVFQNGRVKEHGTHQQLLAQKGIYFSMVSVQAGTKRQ

ABCG2/BCRP = biological target: T1, ABCG2/BCRP (Homo sapiens, UniProt Q9UNQ0); assay: in vitro; conditions: for recovery at 120 min, 1 µM: Caco-2, pH 7.4, Recovery (%)
T1 sequence (Q9UNQ0 1-655): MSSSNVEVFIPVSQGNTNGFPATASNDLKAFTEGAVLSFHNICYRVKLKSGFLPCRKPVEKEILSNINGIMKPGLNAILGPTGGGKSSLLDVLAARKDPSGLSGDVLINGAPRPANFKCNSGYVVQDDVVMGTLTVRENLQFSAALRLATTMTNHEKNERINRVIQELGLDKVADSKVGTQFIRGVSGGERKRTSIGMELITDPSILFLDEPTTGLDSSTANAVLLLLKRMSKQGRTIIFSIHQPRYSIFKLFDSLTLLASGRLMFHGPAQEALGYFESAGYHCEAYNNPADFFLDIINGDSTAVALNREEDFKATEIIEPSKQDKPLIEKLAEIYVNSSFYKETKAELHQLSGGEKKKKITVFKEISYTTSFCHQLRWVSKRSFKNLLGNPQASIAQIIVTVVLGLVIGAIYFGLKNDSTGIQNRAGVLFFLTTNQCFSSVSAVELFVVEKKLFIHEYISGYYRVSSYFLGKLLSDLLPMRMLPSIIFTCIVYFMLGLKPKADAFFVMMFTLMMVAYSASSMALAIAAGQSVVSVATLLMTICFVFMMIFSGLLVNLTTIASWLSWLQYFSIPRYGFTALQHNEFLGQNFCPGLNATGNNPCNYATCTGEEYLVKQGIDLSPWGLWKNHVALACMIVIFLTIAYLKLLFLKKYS
Experimental: Cell monolayers were grown to confluence on collagen-coated, microporous, polycarbonate membranes in 12-well Costar® plates. […] The Transwell permeability assay buffer was Hanks' balanced salt solution (HBSS) containing 10 mM HEPES and 15 mM glucose at a pH of 7.4. The buffer in the receiver chamber also contained 1% bovine serum albumin. […] Cell monolayers were dosed on the apical side (A-to-B) or basolateral side (B-to-A) and incubated at 37° C. with 5% CO2 in a humidified incubator. Samples were taken from the donor and receiver chambers at 120 minutes. Each determination was performed in duplicate. The flux of lucifer yellow post-experimentally was also measured for each monolayer to ensure no damage was inflicted to the cell monolayers during the flux period. All samples were assayed by LC-MS/MS using electrospray ionization. […] The apparent permeability (Papp) and percent recovery were calculated as follows:
Where, dCr/dt is the slope of the cumulative concentration in the receiver compartment versus time in μM s^−1; Vr is the volume of the receiver compartment in cm^3; Vd is the volume of the donor compartment in cm^3; A is the area of the insert (1.13 cm^2 for 12-well Transwell); CA is the average of the nominal dosing concentration and the measured 120 minute donor concentration in μM; CN is the nominal concentration of the dosing solution in μM; Cr^final is the cumulative receiver concentration in M at the end of the incubation period; and Cd^final is the concentration of the donor in μM at the end of the incubation period.
Efflux ratio (ER) is defined as Papp (B-to-A)/Papp (A-to-B).

[1] = Rat toxicology/MTD, limited numbers, FL118-HPβCD complex powder suspension (Roswell Park); conditions: for MTD at 50 days: Sprague-Dawley, rat, in vivo, po, conservative MTD; for BASO / EOS / HCT / HGB / LYM / MCH / MCHC / MCV / MONO / MPV / NEUT / PDW / PLT / RBC / RDW-SD / RET / WBC / ALB / ALP / ALT / AMYL / BUN / CHOL / CREA / Ca / GLU / Na / PHOS / TBIL / TP: rats, oral; for ALB / ALP / ALT / AMYL / BUN / CHOL / CREA / Ca / GLU / Na / PHOS / TBIL / TP: serum
Experimental: Males and females housed separately in autoclaved polycarbonate/polysulfone microisolator cages (≤2 per cage) with autoclaved contact bedding. Environmental conditions in the animal housing room were maintained at an ambient temperature of 70° F.±3° F., relative humidity of 30%-70%, and a 12:12 light-dark cycle. Animal housing rooms were ventilated with 100% fresh, HEPA filtered air with 10-15 air changes per hour. […] Individual rats were identified via tail marking prior to dosing. Each rat received a unique identification number.
Rats were randomly assigned to 4 treatment groups consisting of 2 males and 2 females, and 1 male and 1 female for the vehicle control group.
In accordance with the Roswell Park Laboratory Animal Shared Resources (LASR) SOP, Physical examination was conducted on all rats' pre-study to evaluate general appearance, posture, behavioral status, respiratory system, skin, fur, eyes, nose, urine, feces, locomotion, and body orifices. Cage side clinical observations of experimental rats for mortality and signs of pharmacologic and/or toxicologic effects were conducted once daily in the morning on Days 1-50 of the study. Daily cage side clinical observations included but were not limited to evaluation of the general appearance, posture, behavioral status, respiratory system, skin, fur, eyes, nose, urine, feces, locomotion, and body orifices. The nature, onset, severity, and duration of all gross or visible pharmacologic or toxicologic signs were recorded. Rats were weighed and weights were recorded immediately prior to dosing, and then twice weekly and at termination, using a digital scale (Ohaus CS 2000 balance). […] Any rats in poor health were identified for further monitoring or possible euthanasia. Food consumption was qualitatively assessed daily and recorded. […] Blood samples were placed in pre-labeled serum separator tubes and in K3EDTA plastic tubes, and tightly capped. […] The following tests were conducted.
Clinical hematology: Blood samples were collected into tubes containing K3EDTA. Whole blood samples were stored on wet ice or under refrigeration (4° C.) until they were processed the same day using the IDEXX ProCyte A5088 Hematology Analyzer. The following hematopoietic parameters were evaluated for the whole blood: (1) Red Blood Cell Count (RBC, M/μL), (2) Hemoglobin (HGB, g/dL), (3) Hematocrit (HCT, %), (4) Mean Cell Volume (MCV, fL), (5) Mean Corpuscular Hemoglobin (MCH, pg), (6) Mean Corpuscular Hemoglobin Concentration (MCHC, g/dL), (7) Red Cell Distribution Width (RDW, %), (8) Reticulocytes, absolute (RET, K/μL), (9) Reticulocytes, relative (RET, %), (10) Platelet count (PLT, K/μL), (11) White Blood Cell Count (WBC, K/μL), (12) White Blood Cell Count Differential, absolute (WBCDa, L/μL), and (13) White Blood Cell Count Differential, relative (WBCDr, %).
Clinical chemistry: Blood samples were collected into serum separator tubes. Blood samples were stored at room temperature until they were centrifuged, and serum was removed. Samples were centrifuged at 3000 RPM for 15 minutes at ambient temperature.

CCC1(O)C(=O)OCc2c1cc1n(c2=O)Cc2cc3cc4c(cc3nc2-1)OCO4 (centres unmarked) [FL118]
antitumor efficacy (SK-ES-1 OS tumors): effectively eliminated human osteosarcoma xenograft tumors
minor induction of CYP3A4 (CYP3A4 mRNA): 5-8%
minor induction of CYP3A4 mRNA (CYP3A4 mRNA): FL118 induces a minor induction (5-8%) of CYP3A4
inhibition of P-gp transport of digoxin (P-gp; 1.0 μM FL118): does not inhibit digoxin acting as a BCRP substrate
P-gp Inhibition Potential Classification (P-gp; Caco-2, digoxin as substrate, 1.0 μM FL118 or 1.0 μM Valspodar): Negative (without inhibitor, and reduced by <50 with inhibitor: Negative)
Papp A→B at 120 min, 1 μM (ABCG2/BCRP; Caco-2, pH 7.4, Papp AVG, Caco-2, A-to-B, first FL118 entry (without Ko143)): 10.7 ×10⁻⁶ cm/s
Papp A→B at 120 min, 1 μM (ABCG2/BCRP; Caco-2, pH 7.4, Papp R1, Caco-2, A-to-B, first FL118 entry (without Ko143)): 11.2 ×10⁻⁶ cm/s
Papp A→B at 120 min, 1 μM (ABCG2/BCRP; Caco-2, pH 7.4, Papp R2, Caco-2, A-to-B, first FL118 entry (without Ko143)): 10.3 ×10⁻⁶ cm/s
recovery at 120 min, 1 µM (ABCG2/BCRP; Caco-2, A-to-B, first FL118 entry (without Ko143)): 57%
recovery at 120 min, 1 µM (ABCG2/BCRP; Caco-2, A-to-B, second FL118 entry (presumably with Ko143)): 57%
recovery at 120 min, 1 µM (ABCG2/BCRP; Caco-2, B-to-A, second FL118 entry (presumably with Ko143)): 66%
gross pathology ([1]; all doses): no obvious FL118-related gross pathology macroscopic findings
clinical signs, female rats ([1]; all treatment groups): no serious adverse clinical signs
weight loss, female rats ([1]; all treatment groups): ≤ 10%
MTD at 50 days ([1]; female, female rats): ≤ 4.77 mg/kg
MTD at 50 days ([1]; male, male rats): ≥ 2.44 mg/kg
BASO ([1]; 1.56 mg/kg): 0.01-0.02 K/μL
EOS ([1]; 1.56 mg/kg): 0.04-0.07 K/μL
HCT ([1]; 1.56 mg/kg): 44.5-50.5%
HGB ([1]; 1.56 mg/kg): 14.2 to 16 g/dL
LYM ([1]; 1.56 mg/kg): 5.56-8.7 K/μL
MCH ([1]; 1.56 mg/kg): 17.8 to 18.6 pg
MCHC ([1]; 1.56 mg/kg): 31.2 to 32.1 g/dL
MCV ([1]; 1.56 mg/kg): 56.1 to 58.6 fL
MONO ([1]; 1.56 mg/kg): 0.19-0.58 K/μL
MPV ([1]; 1.56 mg/kg): 7.9 to 8.1 fL
NEUT ([1]; 1.56 mg/kg): 0.38-1.37 K/μL
PDW ([1]; 1.56 mg/kg): 9.2 to 10 fL
PLT ([1]; 1.56 mg/kg): 864-1070 K/μL
RBC ([1]; 1.56 mg/kg): 7.67-8.73 M/μL
RDW-SD ([1]; 1.56 mg/kg): 30 to 33.7 fL
RET ([1]; 1.56 mg/kg): 401-524 K/μL
WBC ([1]; 1.56 mg/kg): 6.5-10.7 K/μL
BASO ([1]; 3.05 mg/kg): 0.01-0.04 K/μL
EOS ([1]; 3.05 mg/kg): 0.02-0.1 K/μL
HCT ([1]; 3.05 mg/kg): 34.6-46.5%
HGB ([1]; 3.05 mg/kg): 11.8 to 14.8 g/dL
LYM ([1]; 3.05 mg/kg): 4.83-6.03 K/μL
MCH ([1]; 3.05 mg/kg): 18.4 to 19.2 pg
MCHC ([1]; 3.05 mg/kg): 31.8 to 34.1 g/dL
MCV ([1]; 3.05 mg/kg): 55.6 to 57.8 fL
MONO ([1]; 3.05 mg/kg): 0.09-0.43 K/μL
MPV ([1]; 3.05 mg/kg): 7.6 to 7.8 fL
NEUT ([1]; 3.05 mg/kg): 0.92-1.42 K/μL
PDW ([1]; 3.05 mg/kg): 9.4 to 9.9 fL
PLT ([1]; 3.05 mg/kg): 665-1259 K/μL
RBC ([1]; 3.05 mg/kg): 6.15-8.04 M/μL
RDW-SD ([1]; 3.05 mg/kg): 29.3 to 35.3 fL
RET ([1]; 3.05 mg/kg): 208-625 K/μL
WBC ([1]; 3.05 mg/kg): 6.0-7.9 K/μL
ALB ([1]; 1.56 mg/kg): 3.4 to 4.4 g/dL
ALP ([1]; 1.56 mg/kg): 111-239 U/L
ALT ([1]; 1.56 mg/kg): 63-134 U/L
AMYL ([1]; 1.56 mg/kg): 1547-2358. U/L
BUN ([1]; 1.56 mg/kg): 15 to 20 mg/dL
CHOL ([1]; 1.56 mg/kg): 89 to 111 mg/dL
CREA ([1]; 1.56 mg/kg): 0.1 to 0.5 mg/dL
Ca ([1]; 1.56 mg/kg): 11.2 to 11.6 mg/dL
GLU ([1]; 1.56 mg/kg): 206 to 296 mg/dL
Na ([1]; 1.56 mg/kg): 143 to 154 mmol/L
PHOS ([1]; 1.56 mg/kg): 10.8 to 13.2 mg/dL
TBIL ([1]; 1.56 mg/kg): 0.2 to 0.8 mg/dL
TP ([1]; 1.56 mg/kg): 6.2 to 6.7 g/dL
ALB ([1]; 3.05 mg/kg): 3.6 to 4.3 g/dL
ALP ([1]; 3.05 mg/kg): 37-168 U/L
ALT ([1]; 3.05 mg/kg): 85-111 U/L
AMYL ([1]; 3.05 mg/kg): 1614-2162. U/L
BUN ([1]; 3.05 mg/kg): 15 to 21 mg/dL
CHOL ([1]; 3.05 mg/kg): 38 to 87 mg/dL
CREA ([1]; 3.05 mg/kg): 0.1 to 0.5 mg/dL
Ca ([1]; 3.05 mg/kg): 11.3 to 11.9 mg/dL
GLU ([1]; 3.05 mg/kg): 282 to 438 mg/dL
Na ([1]; 3.05 mg/kg): 147 to 154 mmol/L
PHOS ([1]; 3.05 mg/kg): 4.1 to 10.5 mg/dL
TBIL ([1]; 3.05 mg/kg): 0.3 to 0.7 mg/dL
TP ([1]; 3.05 mg/kg): 5.4 to 6.3 g/dL
mortality ([1]; weekly oral gavage, 7 doses): No mortality occurred
